Experimental findings from US12448394B2, “Heterocyclic pyrazole derivatives as type III receptor tyrosine kinase inhibitors” (DEVELOPMENT CENTER FOR BIOTECHNOLOGY, priority 2019, dated 2025) are described below.

In assay [1] the test system is MV4-11 human acute myeloid leukemia cell with FLT3-ITD mutation. As to the kind of experiment: MV4-11 cell proliferation assay (CellTiter 96). The format is cell-based. The conditions noted are these: Homo sapiens, MV4-11, 72 h, MV4-11 cells, 72 hours treatment, CellTiter96; read-out: anti-proliferation activity MV4-11 (FLT3-ITD), IC50 ranking. An outline of the steps:
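Cells seeded at 6500/well in IMDM with 10% heat-inactivated FBS, left overnight at 37 °C, 5% CO2, then exposed to increasing compound concentrations for 72 h. Viability read as absorbance at 490 nm after 2–4 h with CellTiter96 AQueous One reagent.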

In assay [2] the test system is Molm-14 human acute myeloid leukemia cell with FLT3-ITD mutation. As to the kind of experiment: Molm-14 cell proliferation assay (CellTiter 96). Type of assay: cell-based. As to conditions: Homo sapiens; Molm-14 cells, 72 hours treatment, CellTiter96; read-out: anti-proliferation activity Molm-14 (FLT3-ITD), IC50 ranking. An outline of the steps:
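Molm-14 (FLT3-ITD AML) cells in RPMI 1640 with 10% heat-inactivated FBS were seeded at 25000 cells/well, incubated overnight at 37° C, 5% CO2, then treated with increasing compound concentrations for 72 hours. Viability was read as absorbance at 490 nm after 2˜4 hours with CellTiter96 AQueous One reagent.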

Assay [3] concerns THP-1 human acute monocytic leukemia cell with NRAS G12D mutation. As to the kind of experiment: THP-1 cell proliferation assay (counter screen). The conditions noted are these: Homo sapiens, THP-1 cells, 72 hours treatment, CellTiter96, read-out: anti-proliferation activity THP-1 NRAS N12D, IC50 ranking. The format is cell-based. An outline of the steps: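 THP-1 cells (NRAS G12D, growth independent of class III RTK signaling) seeded at 5000 cells/well overnight, then exposed to increasing compound concentrations for 72 h at 37° C, 5% CO2. Viability read by CellTiter96 AQueous One reagent (2–4 h) as absorbance at 490 nm.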

Assay [4] addresses T1, FLT3 kinase (Homo sapiens, UniProt P36888).
T1 construct: purchased SignalChem
T1 sequence (P36888 27-993): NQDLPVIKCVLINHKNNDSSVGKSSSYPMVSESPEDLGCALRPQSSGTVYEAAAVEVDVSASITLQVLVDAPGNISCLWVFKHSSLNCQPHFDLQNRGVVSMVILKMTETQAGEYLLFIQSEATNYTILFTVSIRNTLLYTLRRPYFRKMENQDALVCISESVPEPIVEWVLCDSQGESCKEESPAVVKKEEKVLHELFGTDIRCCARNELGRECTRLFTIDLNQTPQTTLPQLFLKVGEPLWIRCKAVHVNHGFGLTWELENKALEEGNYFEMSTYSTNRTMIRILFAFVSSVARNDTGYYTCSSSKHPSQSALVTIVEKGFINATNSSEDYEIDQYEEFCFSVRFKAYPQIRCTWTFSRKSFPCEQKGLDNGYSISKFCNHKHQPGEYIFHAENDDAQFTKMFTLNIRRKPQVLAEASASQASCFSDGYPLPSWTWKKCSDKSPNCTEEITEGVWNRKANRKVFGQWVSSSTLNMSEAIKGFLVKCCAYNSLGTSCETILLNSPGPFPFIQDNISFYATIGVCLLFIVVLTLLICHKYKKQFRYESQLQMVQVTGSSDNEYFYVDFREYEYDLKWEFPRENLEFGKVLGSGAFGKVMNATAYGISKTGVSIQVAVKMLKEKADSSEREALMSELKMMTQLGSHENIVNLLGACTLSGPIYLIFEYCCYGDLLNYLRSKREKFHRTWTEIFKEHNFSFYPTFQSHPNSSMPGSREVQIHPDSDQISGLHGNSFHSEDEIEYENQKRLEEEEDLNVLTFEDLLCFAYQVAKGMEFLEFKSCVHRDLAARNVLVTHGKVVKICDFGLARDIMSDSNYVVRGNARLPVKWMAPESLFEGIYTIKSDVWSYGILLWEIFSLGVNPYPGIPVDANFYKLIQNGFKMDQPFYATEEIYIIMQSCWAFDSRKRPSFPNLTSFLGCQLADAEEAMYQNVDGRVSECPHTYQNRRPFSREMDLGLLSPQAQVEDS
Nature of the assay: FLT3 kinase assay (AlphaScreen). Type of assay: biochemical. The conditions noted are these: read-out: Ranking of IC50 values, FLT3. An outline of the steps:
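Recombinant FLT3 (1.5 ng) phosphorylated biotinylated poly(Glu4:Tyr1) with 10 μM ATP in MOPS pH 7.0 buffer containing 10 mM MgCl2, 30 min at 30 °C, stopped with EDTA. Product detected by AlphaScreen; IC50 from duplicate serial dilutions.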

As to `Cn1ncc2ccc(-c3n[nH]c4c3Cc3sc(-c5ccc(CN6CCOCC6)c(F)c5)cc3-4)cc21` [Compound 25, 4-(2-fluoro-4-(3-(1-methyl-1H-indazol-6-yl)-1,4-dihydrothieno[2′,3′:4,5]cyclopenta[1,2-c]pyrazol-6-yl)benzyl)morpholine], the IC50 in assay [1] was less than 30 nM; in assay [2], 30 to 100 nM; in assay [3] it was greater than 10000 nM; in assay [4] it was 1 to 10 nM.
On the same counts, the results for `Cn1ncc2ccc(-c3n[nH]c4c3Cc3sc(-c5ccc(C=C6CCOCC6)cc5)cc3-4)cc21` [Compound 76, 3-(1-methyl-1H-indazol-6-yl)-6-(4-((tetrahydro-4H-pyran-4-ylidene)methyl)phenyl)-1,4-dihydrothieno[2′,3′:4,5] cyclopenta[1,2-c]pyrazole] are 300 to 1000 nM, 300 to 1000 nM, greater than 10000 nM and 1 to 10 nM.
With `Cn1ncc2ccc(-c3n[nH]c4c3Cc3sc(-c5ccc(CN6CCC(N7CCOCC7)CC6)cc5)cc3-4)cc21` [Compound 80, 4-(1-(4-(3-(1-methyl-1H-indazol-6-yl)-1,4-dihydro-thieno[2′,3′:4,5]cyclopenta [1,2-c]pyrazol-6-yl)benzyl)piperidin-4-yl) morpholine], the IC50 in assay [1] is less than 30 nM; in assay [2] it was less than 30 nM; in assay [3] it was greater than 10000 nM; in assay [4], less than 1 nM.
For `Cn1ncc2ccc(-c3n[nH]c4c3Cc3sc(-c5cccc(C(=O)N6CCOCC6)c5)cc3-4)cc21` [Compound 37, (3-(3-(1-methyl-1H-indazol-6-yl)-1,4-dihydro-thieno[2′,3′:4,5]cyclopenta [1,2-c]pyrazol-6-yl)phenyl)(morpholino) methanone], the IC50 in assay [1] was less than 30 nM; in assay [2], 30 to 100 nM; in assay [3], greater than 10000 nM; in assay [4] it was 1 to 10 nM.
Turning to `Cn1ncc2ccc(-c3n[nH]c4c3Cc3sc(-c5ccc(CN6CCCCC6)cc5)cc3-4)cc21` [Compound 100, 3-(1-methyl-1H-indazol-6-yl)-6-(4-(piperidin-1-ylmethyl)phenyl)-1,4-dihydrothieno[2′,3′:4,5] cyclopenta[1,2-c]pyrazole], the IC50 was less than 30 nM in assay [1], less than 30 nM in assay [2], 1000 to 10000 nM in assay [3] and less than 1 nM in assay [4].
Turning to `CN1CCN(C(=O)c2ccc(-c3cc4c(s3)Cc3c(-c5ccc6cnn(C)c6c5)n[nH]c3-4)cc2)CC1` [Compound 15, (4-(3-(1-methyl-1H-indazol-6-yl)-1,4-dihydrothieno[2′,3′:4,5]cyclopenta[1,2-c]pyrazol-6-yl)phenyl)(4-methyl-piperazin-1-yl)methanone], the IC50 in assay [1] was less than 30 nM; in assay [2], less than 30 nM; in assay [3] it was greater than 10000 nM; in assay [4], less than 1 nM.
As to `C[C@@H]1COCCN1Cc1ccc(-c2cc3c(s2)Cc2c(-c4ccc5cnn(C)c5c4)n[nH]c2-3)cc1` [Compound 74, (R)-3-methyl-4-(4-(3-(1-methyl-1H-indazol-6-yl)-1,4-dihydrothieno [2′,3′:4,5]cyclopenta [1,2-c]pyrazol-6-yl)benzyl)morpholine], the IC50 in assay [1] was less than 30 nM; in assay [2], 30 to 100 nM; in assay [3], greater than 10000 nM; in assay [4] it was less than 1 nM.
Regarding `CN(c1ccc(-c2cc3c(s2)Cc2c(-c4ccc5cnn(C)c5c4)n[nH]c2-3)cc1)C1CCOCC1` [Compound 73, N-methyl-N-(4-(3-(1-methyl-1H-indazol-6-yl)-1,4-dihydrothieno [2′,3′:4,5]cyclopenta [1,2-c]pyrazol-6-yl)phenyl)tetrahydro-2H-pyran-4-amine], the IC50 in assay [1] is 100 to 300 nM; in assay [2], 300 to 1000 nM; in assay [3] it was greater than 10000 nM; in assay [4], 1 to 10 nM.
